Earlier results as cited in article PMC6241861 (International Journal of Nanomedicine, 2018).

Tests used:
[1] = biological target: Pseudomonas aeruginosa elastase (Pseudomonas aeruginosa, UniProt P14756)
[2] = biological target: T1, human neutrophil elastase (Homo sapiens, UniProt P08246)
T1 sequence (P08246 30-267): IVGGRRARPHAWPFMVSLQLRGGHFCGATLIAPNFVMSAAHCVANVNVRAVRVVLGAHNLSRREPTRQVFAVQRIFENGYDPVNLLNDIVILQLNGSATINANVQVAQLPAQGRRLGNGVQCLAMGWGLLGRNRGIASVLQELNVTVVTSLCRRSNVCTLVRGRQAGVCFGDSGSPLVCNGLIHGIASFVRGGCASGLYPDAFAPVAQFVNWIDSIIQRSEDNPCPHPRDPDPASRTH

Sequence of Pseudomonas aeruginosa elastase (P14756 198-498): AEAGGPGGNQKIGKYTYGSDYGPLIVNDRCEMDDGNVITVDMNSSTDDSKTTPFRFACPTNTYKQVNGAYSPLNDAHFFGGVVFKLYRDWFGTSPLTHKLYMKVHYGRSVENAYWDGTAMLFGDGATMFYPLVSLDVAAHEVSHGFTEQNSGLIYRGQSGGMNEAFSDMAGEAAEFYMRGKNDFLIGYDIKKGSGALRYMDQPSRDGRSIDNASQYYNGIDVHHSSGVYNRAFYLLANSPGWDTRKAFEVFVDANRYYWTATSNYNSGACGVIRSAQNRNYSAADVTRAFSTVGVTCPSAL

## LL37
[1]
  Degradation by P. aeruginosa elastase [PE]: degraded
[2]
  Degradation by leukocyte elastase [HNE]: degraded
